Experiments:
Details in all cases: 72 h
Caco-2 [1] = assay: cell viability relative to DMSO; higher = less toxic
Calu-3 [2] = assay: as above
HepG2 [3] = assay: as above
U2OS [4] = assay: as above
Vero E6 [5] = assay: as above
Caco-2 [6] = assay: relative viability EC50 (midpoint between 100% and the lowest measured viability); higher = less toxic
Calu-3 [7] = assay: as above
HepG2 [8] = assay: as above
U2OS [9] = assay: as above
Vero E6 [10] = assay: as above
Caco-2 [11] = assay: drug sensitivity score (DSS) for viability; higher = more toxic; extreme values may be limits of the assay
Calu-3 [12] = assay: as above
HepG2 [13] = assay: as above
U2OS [14] = assay: as above
Vero E6 [15] = assay: as above

| Structure (SMILES) | cell viability (Caco-2 [1]; 1 nM) | cell viability (Caco-2 [1]; 10 nM) | cell viability (Caco-2 [1]; 100 nM) | cell viability (Caco-2 [1]; 1000 nM) | cell viability (Caco-2 [1]; 10000 nM) | cell viability (Calu-3 [2]; 1 nM) | cell viability (Calu-3 [2]; 10 nM) | cell viability (Calu-3 [2]; 100 nM) | cell viability (Calu-3 [2]; 1000 nM) | cell viability (Calu-3 [2]; 10000 nM) | cell viability (HepG2 [3]; 1 nM) | cell viability (HepG2 [3]; 10 nM) | cell viability (HepG2 [3]; 100 nM) | cell viability (HepG2 [3]; 1000 nM) | cell viability (HepG2 [3]; 10000 nM) | cell viability (U2OS [4]; 1 nM) | cell viability (U2OS [4]; 10 nM) | cell viability (U2OS [4]; 100 nM) | cell viability (U2OS [4]; 1000 nM) | cell viability (U2OS [4]; 10000 nM) | cell viability (Vero E6 [5]; 1 nM) | cell viability (Vero E6 [5]; 10 nM) | cell viability (Vero E6 [5]; 100 nM) | cell viability (Vero E6 [5]; 1000 nM) | cell viability (Vero E6 [5]; 10000 nM) | relative viability EC50 (Caco-2 [6]) | relative viability EC50 (Calu-3 [7]) | relative viability EC50 (HepG2 [8]) | relative viability EC50 (U2OS [9]) | relative viability EC50 (Vero E6 [10]) | drug sensitivity score (Caco-2 [11]) | drug sensitivity score (Calu-3 [12]) | drug sensitivity score (HepG2 [13]) | drug sensitivity score (U2OS [14]) | drug sensitivity score (Vero E6 [15]) |
| --- | --- | --- | --- | --- | --- | --- | --- | --- | --- | --- | --- | --- | --- | --- | --- | --- | --- | --- | --- | --- | --- | --- | --- | --- | --- | --- | --- | --- | --- | --- | --- | --- | --- | --- | --- |
| CCCN(CC1CC1)c1nc(C)nc(Nc2c(Cl)cc(Cl)cc2Cl)c1Cl | 93.5% | 97.8% | 90% | 96.2% | 89.8% | 85.1% | 95.1% | 93.8% | 96.8% | 95.5% | 95.4% | 94% | 106% | 103% | 97.2% | 100% | 97.3% | 103% | 101% | 99.3% | 98.3% | 96.7% | 94.9% | 96.8% | 106% | > 10 µM | > 10 µM | > 10 µM | > 10 µM | > 10 µM | 0 | 0 | 0 | 0 | 0 |
| CCn1c(-c2nonc2N)nc2cncc(CNC3CCNCC3)c21 | 93.6% | 95.1% | 105% | 105% | 80.4% | 94% | 103% | 102% | 120% | 114% | 94.8% | 104% | 89.1% | 80.6% | 79.7% | 93.9% | 98.2% | 96.7% | 97.3% | 76.3% | 93.3% | 104% | 101% | 93.8% | 94.1% | > 10 µM | > 10 µM | > 10 µM | > 10 µM | > 10 µM | 0.4 | 0 | 3.9 | 1.3 | 0 |
| COc1cc(Br)c(S(=O)(=O)Nc2ccc(Cl)c(O[C@@H]3CCN(C)C3)c2)cc1OC | 104% | 93.7% | 99.7% | 94.9% | 90% | 80.8% | 99.2% | 90.3% | 94.3% | 85% | 97.6% | 98.3% | 106% | 91.8% | 36.3% | 95.2% | 97.4% | 88.5% | 97.7% | 95% | 101% | 93.6% | 96.1% | 97.8% | 108% | > 10 µM | > 10 µM | 2.13 µM | > 10 µM | > 10 µM | 0 | 0 | 4.9 | 0 | 0 |
| COc1cc(N2CCOCC2)ccc1Nc1ncc(Cl)c(Nc2ccccc2NS(C)(=O)=O)n1 | 99.5% | 91.7% | 94.1% | 80.8% | 35.6% | 103% | 84.2% | 84.2% | 59.6% | 19.6% | 103% | 101% | 94.7% | 70.6% | 23.1% | 102% | 97.2% | 98.8% | 75% | 27.4% | 99.1% | 110% | 99.1% | 76.9% | 15.6% | 1.49 µM | 0.667 µM | 1.29 µM | 1.29 µM | 1.47 µM | 6.1 | 10.4 | 7.8 | 7.6 | 8.2 |
| COc1ccc(NS(=O)(=O)c2sc3ccc(Cl)cc3c2C)cc1N1CCNCC1 | 98.9% | 98.7% | 104% | 102% | 96.1% | 104% | 105% | 108% | 105% | 98.1% | 108% | 104% | 106% | 109% | 87.4% | 99.9% | 96% | 97.2% | 98.5% | 94.5% | 93.3% | 98% | 97.6% | 94.4% | 103% | > 10 µM | > 10 µM | > 10 µM | > 10 µM | > 10 µM | 0 | 0 | 0 | 0 | 0 |
| Cc1ccccc1/N=N/c1ccc(NC(=O)c2ccnn2C)c(C)c1 | 90.6% | 94% | 97.9% | 93.8% | 91.5% | 112% | 100% | 97.6% | 99.3% | 90.9% | 107% | 102% | 104% | 91% | 97.6% | 96.7% | 102% | 100% | 102% | 93.2% | 97.3% | 92.1% | 95.2% | 94.1% | 108% | > 10 µM | > 10 µM | > 10 µM | > 10 µM | > 10 µM | 0 | 0 | 0 | 0 | 0 |
| Cc1cccn2c(=O)c(/C=C(\C#N)c3nc4ccccc4s3)c(Oc3ccc(F)cc3)nc12 | 105% | 96.3% | 113% | 115% | 119% | 105% | 97.9% | 101% | 104% | 106% | 103% | 99.6% | 100% | 99.3% | 102% | 98.3% | 98.2% | 98.2% | 103% | 99.1% | 103% | 100% | 98.9% | 98.7% | 95.8% | > 10 µM | > 10 µM | > 10 µM | > 10 µM | > 10 µM | 0 | 0 | 0 | 0 | 0 |
| Cc1n[nH]c2ccc(-c3cncc(OC[C@@H](N)Cc4ccccc4)c3)cc12 | 96.7% | 102% | 97.8% | 92.2% | 27.3% | 105% | 102% | 93.4% | 103% | 41.3% | 103% | 95.8% | 106% | 53% | 1.7% | 99.6% | 99.8% | 97.7% | 88.3% | 2.8% | 101% | 106% | 96.3% | 66% | 5% | 2.28 µM | 3.43 µM | 1.04 µM | 2.18 µM | 1.3 µM | 5.3 | 2.9 | 11.3 | 7.3 | 9.7 |
| O=C(Oc1cc(S(=O)(=O)c2ccccc2)ccc1[N+](=O)[O-])c1ccc(Cl)cc1 | 103% | 93.4% | 92.3% | 87.5% | 103% | 101% | 97.2% | 92.5% | 94.8% | 106% | 100% | 97.2% | 98.4% | 97.2% | 102% | 96.5% | 94.9% | 97.4% | 94.6% | 96.9% | 97.5% | 104% | 94.7% | 101% | 106% | > 10 µM | > 10 µM | > 10 µM | > 10 µM | > 10 µM | 0 | 0 | 0 | 0 | 0 |
| O=c1cc(N2CCOCC2)oc2c(-c3ccccc3)cccc12 | 109% | 94.9% | 89% | 96.5% | 81.9% | 98% | 93.7% | 97.4% | 98.2% | 76.5% | 93.5% | 101% | 110% | 105% | 86.1% | 97.5% | 95% | 94.2% | 97.8% | 92.3% | 99.8% | 97.4% | 96.1% | 92.4% | 77.1% | > 10 µM | > 10 µM | > 10 µM | > 10 µM | > 10 µM | 0.6 | 1.1 | 0.1 | 0 | 1.3 |
| c1ccc(CCCN2CCN(CCOC(c3ccccc3)c3ccccc3)CC2)cc1 | 104% | 95% | 94.4% | 92.9% | 85.6% | 102% | 98.4% | 103% | 95.9% | 99.7% | 92.4% | 91.6% | 99.2% | 99.7% | 85.1% | 101% | 97% | 100% | 98.1% | 97.8% | 114% | 104% | 106% | 96.5% | 95.9% | > 10 µM | > 10 µM | > 10 µM | > 10 µM | > 10 µM | 0.3 | 0 | 0.2 | 0 | 0 |
| CC(C)NC[C@@H](O)c1ccc(O)c(O)c1 (racemic) [isoprenaline] | 96.5% | 90% | 89% | 92.9% | 93.9% | 93.6% | 104% | 94.4% | 92.3% | 98.2% | 109% | 98.6% | 96.5% | 100% | 101% | 96.8% | 98.9% | 95.5% | 99.7% | 103% | 101% | 97.6% | 101% | 107% | 79.8% | > 10 µM | > 10 µM | > 10 µM | > 10 µM | > 10 µM | 0 | 0 | 0 | 0 | 0.4 |
| BrC1C(Br)C(Br)C(Br)C(Br)C1Br (stereo not given) [1,2,3,4,5,6-hexabromocyclohexane] | 96.4% | 93.6% | 97.3% | 102% | 98.4% | 106% | 104% | 104% | 87.3% | 105% | 95.8% | 106% | 89.1% | 99.8% | 90.2% | 99.1% | 96.4% | 101% | 95.1% | 101% | 99.7% | 107% | 101% | 105% | 93.9% | > 10 µM | > 10 µM | > 10 µM | > 10 µM | > 10 µM | 0 | 0 | 0 | 0 | 0 |
| CCN1CCCC1=O [1-ethyl-2-pyrrolidone] | 93.6% | 99.6% | 99.4% | 88% | 95.2% | 97.9% | 104% | 104% | 98.6% | 104% | 99.1% | 99.1% | 94% | 99.9% | 97.2% | 95.9% | 98.4% | 104% | 95.5% | 102% | 103% | 103% | 97% | 97.9% | 95.3% | > 10 µM | > 10 µM | > 10 µM | > 10 µM | > 10 µM | 0 | 0 | 0 | 0 | 0 |

Source: the supplement of paper PMC13380429
